From article PMC3027097 (Journal of Translational Medicine, 2011) come the findings set out here.

Data set [1] is described as follows: human serum (Lonza, Basel, Switzerland). The settings on record: 37°C, up to 24h.
The next data set concerns WKY rats. Nature of the data set: Wound healing assay, full-thickness skin wound. The class given is in vivo, rat. As for the experimental part: (§1) Wound healing assay was performed on 14-week-old (weight 293 ± 21 g) normotensive WKY male rats (Charles River Laboratories, Calco (LC), Italy; n = 18), and Matrigel plugs experiments were carried out on 16-week-old (weight 33 ± 4 g) c57BL/6 mice (Charles River Laboratories, Milan, Italy; n = 13). All animal procedures were performed in accordance with the Guide for the Care and Use of Laboratory Animals published by the National Institutes of Health in the United States (NIH Publication No. 85- 23, revised 1996) and approved by the Ethics Committee for the Use of Animals in Research of "Federico II" University.
The rats (n = 18) were anesthetized using vaporized isoflurane (4%, Abbott) and maintained by mask ventilation (isoflurane 1.8%)[29]. The dorsum was shaved by applying a depilatory creme (Veet, Reckitt-Benckiser, Milano, Italy) and disinfected with povidone iodine scrub. […] Two operators blinded to the identity of the sample examined and measured wound areas every day, for 8 days. Direct measurements of wound region were determined by digital planimetry (pixel area), and subsequent analysis was performed using a computer-assisted image analyzer (ImageJ software, version 1.41, National Institutes of Health, Bethesda, MD, USA). Wound healing was quantified as a percentage of the original injury size. […]

Data set [2] concerns ERK2 phosphorylation in EC. Nature of the data set: hFN-induced ERK2 phosphorylation, western blot, EC. The class given is cell-based. The settings on record: densitometry. As for the experimental part:
(§2) In vitro studies were performed on cell cultures of ECs or VSMCs, cultured in Dulbecco's modified Eagle's medium (DMEM; Sigma-Aldrich, Milan, Italy) as previously described and validated. Cell culture plates were filled with 10 μg/cm^2 of human fibronectin (hFN, Millipore®, Bedford, MA, USA) as described. All experiments were performed in triplicate with cells between passages 5 and 9.
(§3) Immunoblot analyses were performed as previously described and validated. Mouse monoclonal antibodies to extracellular signal regulated kinase (ERK2) and phospho-ERK, anti-rabbit VEGF and actin were from Santa Cruz Biotecnology (Santa Cruz, CA, USA). Levels of VEGF were determined using an antibody raised against VEGF-165 (Santa Cruz Biotechnology). Experiments were performed in triplicate to ensure reproducibility. Data are presented as arbitrary densitometry units (ADU) after normalization for the total corresponding protein or actin as internal control.

For data set [3], the system named is ERK2 phosphorylation in VSMC. The experiment in a line: hFN-induced ERK2 phosphorylation, western blot, VSMC. The class given is cell-based. To be noted: densitometry. On the procedure:
as §2, §3

A further data set deals with c57BL/6 mice. The experiment in a line: Matrigel plugs, EC infiltration by lectin staining. The class given is in vivo, mouse. To be noted: s.c. Matrigel with VEGF and 10^-5M peptide, seven days, mean ± SEM. As for the experimental part:
as §1
Mice (n = 13), anesthetized as described above, were subcutaneously injected midway on the dorsal side, using sterile conditions, with 0.2 ml of Matrigel® basement matrix, pre-mixed with 10^-6M VEGF and 10^-5M c(RGDf[NMe]V) (n = 4), 10^-6M VEGF and 10^-5M RGDechiHCit (n = 5), or 10^-6M VEGF alone (n = 4). After seven days, mice were euthanized and the implanted plugs were harvested from underneath the skin, fixed in 10% neutral-buffered formalin solution and then embedded in paraffin. Invading ECs were identified and quantified by analysis of lectin immunostained sections, as described.
All tissues were cut in 5 μm sections and slides were counterstained with a standard mixture of hematoxylin and eosin. […]

For data set [4], the system named is bovine aortic endothelial cells (EC). Nature of the data set: hFN-induced cell proliferation assay (cell number), EC. The format is cell-based. As for the experimental part:
as §2
(§4) Cell cultures were prepared as previously described. Briefly, cells were seeded at density of 100000 per well in six-well plates, serum starved, pre-incubated at 37°C for 30' with c(RGDf[NMe]V) or RGDechiHCit (10^-6 M). Proliferation was induced using hFN (100 μg/ml). Cell number was measured at 3, 6 and 20 h after stimulation as previously described.

The test system of data set [5] is VEGF production in bovine aortic endothelial cells (ECs). Nature of the data set: VEGF quantification by western blot, EC. The class given is cell-based. The settings on record: 6 hours of stimulation with hFN, peptides 10^-6 M, mean ± SEM.
Experimental: VEGF production was measured as previously described [26]. Briefly, ECs were seeded at a density of 600000 per well in six well plates, serum starved overnight, seeded with c(RGDf[NMe]V) or RGDechiHCit (10^-6 M) and then stimulated with hFN for 6 hours.
Immunoblot analyses were performed as previously described and validated [23, 28]. […] Levels of VEGF were determined using an antibody raised against VEGF-165 (Santa Cruz Biotechnology) [26]. Experiments were performed in triplicate to ensure reproducibility. Data are presented as arbitrary densitometry units (ADU) after normalization for the total corresponding protein or actin as internal control [24].
The test system of data set [6] is vascular smooth muscle cells (VSMC). The experiment in a line: hFN-induced cell proliferation assay (cell number), VSMC. The format is cell-based. On the procedure: as §2, §4
For data set [7], the system named is bovine aortic endothelial cells (ECs). Nature of the data set: Endothelial Matrigel assay (tube formation). To be noted: hFN 100 μg/ml, peptides 10^-6 M, 37°C, mean ± SEM. The format is cell-based.
Experimental: The formation of network-like structures by ECs on an extracellular matrix (ECM)-like 3D gel consisting of Matrigel® (BD Biosciences, Bedford, MA, USA), was performed as previously described and validated [27, 28]. The six-well multidishes were coated with growth factor-reduced Matrigel in according to the manufacturer's instructions. ECs (5×10^4) were seeded with c(RGDf[NMe]V) or RGDechiHCit (10^-6 M), in the absence (negative control) or presence (100 μg/ml) of hFN [24]. Cells were incubated at 37°C for 24h in 1 ml of DMEM. […] Network formation was observed using an inverted phase-contrast microscope (Zeiss). Representative fields were taken, and the average of the total number of complete tubes formed by cells was counted in 15 random fields by two independent investigators.

For c(RGDf[NMe]V), the not cleaved entry in data set [1] was “After 24h of incubation chromatogram and mass profiles failed to identify any degradation product”.

`CC(C)[C@H]1C(=O)N[C@@H](CCCNC(=N)N)C(=O)NCC(=O)N[C@@H](CC(=O)O)C(=O)N[C@H](Cc2ccccc2)C(=O)N1C` [c(RGDf[NMe]V)]: the “wound healing (closure of full-thickness wounds)” value in the data set on WKY rats (pluronic gel 30% containing 10^-6 M peptide placed daily on 20 mm wound, 8 days) is reported as “slowed down healing”. Further, the wound histology result in the data set on WKY rats (wounds excised 8 days after surgery) is reported as “exhibited a retarded repair pattern”. The “hFN-induced phosphorylation of ERK2 in EC” value in data set [2] is “significantly inhibited”. For the same molecule, in [3], the “hFN-induced phosphorylation of ERK2 in VSMC” value is listed as “decreased such activation”. Also, the “EC infiltration of Matrigel plugs” value in the data set with c57BL/6 mice is 0.185 ± 0.027 fold over VEGF alone. Further, the EC proliferation result in data set [4] (hFN 100 μg/ml stimulation, peptides 10^-6 M pre-incubated 30' at 37°C, after 6 hours, mean ± SEM) is given as “+0.6 ± 0.38 fold over basal”. For the same molecule, the “EC proliferation, peptide given alone” value in [4] (without hFN) is recorded as “did not affect EC proliferation”. Also, the “VEGF expression levels in EC” value in [5] is listed as “+3.19 ± 0.73 fold over basal, ADU”. The VSMC proliferation entry in data set [6] (hFN 100 μg/ml stimulation, peptides 10^-6 M, mean ± SEM, NS) was “+0.9 ± 0.09 fold over basal”. Further, the “VSMC proliferative response to hFN at 20h” value in data set [6] (hFN stimulation, 20h) was “induced an attenuation of such proliferative response”. The “tube formation on Matrigel” value in data set [7] amounted to 14.11 ± 3.9 branches per 10000 μm^2.
